Source: patent US20130060543A1, “SYSTEMS AND METHODS FOR REVERSE ENGINEERING MODELS OF BIOLOGICAL NETWORKS” (TRUSTEES OF BOSTON UNIVERSITY, priority 2002, published 2013)

System: SOS test network genes
Assay: RNA expression changes of SOS test network genes after MMC perturbation (real-time qPCR)
Assay type: cell-based, E. coli

## CO[C@@]12[C@H](COC(N)=O)C3=C(C(=O)C(C)=C(N)C3=O)N1C[C@@H]1N[C@@H]12 [MMC, Mitomycin C]
0.75 μg/ml MMC vs 0.5 μg/ml MMC baseline
  Transcriptional response of all genes in the test network: statistically significant upregulation
0.75 μg/ml MMC vs control cells at 0.5 μg/ml MMC, gene dinI
  Relative RNA expression change xi=[RNAi]pert/[RNAi]cont−1, dinI: 0.334
0.75 μg/ml MMC vs control cells at 0.5 μg/ml MMC, gene lexA
  Relative RNA expression change xi=[RNAi]pert/[RNAi]cont−1, lexA: 0.321
0.75 μg/ml MMC vs control cells at 0.5 μg/ml MMC, gene recA
  Relative RNA expression change xi=[RNAi]pert/[RNAi]cont−1, recA: 0.496
0.75 μg/ml MMC vs control cells at 0.5 μg/ml MMC, gene recF
  Relative RNA expression change xi=[RNAi]pert/[RNAi]cont−1, recF: 0.523
0.75 μg/ml MMC vs control cells at 0.5 μg/ml MMC, gene rpoD
  Relative RNA expression change xi=[RNAi]pert/[RNAi]cont−1, rpoD: 0.327
0.75 μg/ml MMC vs control cells at 0.5 μg/ml MMC, gene rpoH
  Relative RNA expression change xi=[RNAi]pert/[RNAi]cont−1, rpoH: 0.786
0.75 μg/ml MMC vs control cells at 0.5 μg/ml MMC, gene rpoS
  Relative RNA expression change xi=[RNAi]pert/[RNAi]cont−1, rpoS: 0.672
0.75 μg/ml MMC vs control cells at 0.5 μg/ml MMC, gene ssb
  Relative RNA expression change xi=[RNAi]pert/[RNAi]cont−1, ssb: 0.251
0.75 μg/ml MMC vs control cells at 0.5 μg/ml MMC, gene umuDC
  Relative RNA expression change xi=[RNAi]pert/[RNAi]cont−1, umuDC: 0.834
